This is an account of results in US20260325538A1, “THERAPY” (priority 2023, published 2026).

Assay [1] deals with Klebsiella pneumoniae Kpn St147 (NDM-1 and KPC-2). The experiment in a line: MIC determination of cefepime with zinc chelator and avibactam (checkerboard, broth microdilution). The class given is cell-based. The method, then:
(§1) Antimicrobial susceptibility testing (AST) by broth microdilution was performed according to The European Committee on Antimicrobial Susceptibility Testing. Reading guide for broth microdilution. Version 4.0, 2022 (see: http://www.eucast.org).
(§2) Checkerboard 96-well plates (Corning 3788) were made by conducting serial two-fold dilutions of cefepime in cation-adjusted Mueller Hinton II broth (caMHB; Thermo Scientific, T3462), in columns across the microtiter plate (64-0.03 μg/ml). Additionally, avibactam was added to rows 3 to 8 in concentrations of 64, 16, 8, 4, 1 and 0.25 μg/ml, respectively. The zinc chelator was added to the wells of the plate, where applicable. Three plates were made per experiment, one without the zinc chelator (plate 1), one with 16 μg/ml of the zinc chelator (plate 2) and one with 32 μg/ml of the zinc chelator (plate 3). The first row in all plates was used as a positive control for cefepime only, and the second row included the zinc chelator in addition to cefepime (no avibactam added to rows 1 or 2). The zinc chelator was added at the indicated concentration, to rows 3-8 of plates 2 and 3.
The effect of the combination of zinc chelator/FEP/avibactam was tested on a clinically isolated Klebsiella pneumoniae Kpn St147 actively constitutionally expressing the two resistance mechanisms NDM-1 and KPC-2 simultaneously. As a negative control, bacteria+FEP was tested alone. As a positive control, bacteria+FEP+zinc chelator was used. In Tables 1 and 2, concentrations (μg/ml) of FEP are given in the top row left to right and avibactam concentrations (μg/ml) are given top to bottom in column 1.
(§3) The fractional inhibitory concentration (FIC) is defined as the concentration that kills when used in combination with another agent divided by the concentration that has the same effect when used alone. The FIC index (FICI) for the combination of two agents is the sum of their individual FIC values. […] The European Committee for Antimicrobial Susceptibility Testing (EUCAST) of the European Society of Clinical Microbiology and Infectious Diseases (ESCMID) 2000 adopts the following definitions to determine the susceptibility of bacteria to an antimicrobial agent (see EUCAST Definitive Document E. Def 1.2: Terminology relating to methods for the determination of susceptibility of bacteria to antimicrobial agents. Clin. Microbiol. Infect. 2000; 6(9): 503-508): • FICI value≤0.5; synergy • 0.5<FICI value≤1; additive effect • 1<FICI value≤2; indifferent effect • FICI≥2; antagonistic effect
To test for synergy, all data were subjected to the following formula in which A=zinc chelator; B=cefepime; and C=avibactam:
(§4) ΣFICI=MICA(combination)/MICA (alone)+MICB(combination)/MICB (alone)+MICC(combination)/MICC (alone)
(Dilution methods test growth across graded concentrations, often in twofold steps.)

For assay [2] the test system is unchanged. The experiment in a line: MIC determination of ceftazidime with zinc chelator and avibactam (checkerboard, broth microdilution). The class given is cell-based. As to conditions: with CAZ and avibactam.
From the text: as §3, §1
as §2, with “CAZ” for “cefepime”, “Three plates were made per experiment, one without the zinc chelator (plate 1), one with 16 μg/ml of the zinc chelator (plate 2) and one with 32 μg/ml of the zinc chelator (plate 3).” left out, “concentration” for “concentration,”
The effect of the combination of zinc chelator/CAZ/avibactam was tested on a clinically isolated Klebsiella pneumoniae Kpn St147 actively constitutionally expressing the two resistance mechanisms NDM-1 and KPC-2 simultaneously. As a negative control, bacteria+CAZ was tested alone. As a positive control, bacteria+CAZ+zinc chelator was used. In Tables 3 and 4, concentrations (μg/ml) of CAZ are given in the top row left to right and avibactam concentrations (μg/ml) are given top to bottom in column 1.
as §4

The subject of assay [3] is certain strains of Pseudomonas aeruginosa. As to conditions: in combination with meropenem; cited from earlier work.

For `CN(C[C@H](O)[C@@H](O)[C@H](O)[C@H](O)CO)C(=O)c1ccc(CN(Cc2ccccn2)Cc2ccccn2)nc1` [zinc chelator], the “FICI Zinc Chelator” value in assay [1] (zinc chelator 8 μg/mL, with FEP and avibactam) is 0.004; in assay [2] (zinc chelator 8 μg/mL) it was 0.0039; in assay [2] (zinc chelator 16 μg/mL) it was 0.0078. Besides, the “amplification of the inhibitory effect” value in assay [1] (zinc chelator at 16 μg/ml, with cefepime and avibactam) was “about 16 fold”. In addition, the “effect of combination with meropenem” value in assay [3] was “poor effect”.
